Data reported in patent US20140023592A1, “SELF COUPLING RECOMBINANT ANTIBODY FUSION PROTEINS” (RWTH Aachen, priority 2007, published 2014).

Tested on: FKBP-AGT fusion protein (SNAP-FKBP)
Experiment: Reactivity with FKBP-AGT fusion protein (protein trimer formation, SDS-PAGE/coomassie)
Type: biochemical
Conditions: in vitro, 4 h incubation at rt, SDS-PAGE with coomassie staining
Description: Determination of the Reactivity of Compound (FIG. 89), (FIG. 90), (FIG. 91), (FIG. 92) and (FIG. 96) with FKBP-AGT Fusion Protein 1 μL of a 591 μM solution of FKBP protein fused to a variant of AGT available from Covalys as […] and 1 μL of a 100 μM solution of compound (FIG. 89), (FIG. 90), (FIG. 91), (FIG. 92) or (FIG. 96) are added to 8 μL of a solution of 50 mM Tris-HCl pH 7.5; 100 mM NaCl; 0.1% Tween20TM; 1 mM DTT. Following a 4 h incubation at rt, 15 μL of a solution of 100 mM Tris-HCl pH 6.8; 2% SDS; 35% glycerol; 10 mM EDTA; 20 mM DTT is added. Then the mixture is boiled for 5 min at 95° C. After cooling to rt, 25 μL of this solution is loaded on a 4-20% linear gradient SDS-PAGE gel. After electrophoresis, the proteins are coomassie stained in gel to visualize protein trimer.

Chain of FKBP-AGT fusion protein (SNAP-FKBP) (P16455 1-182 C62A/K125A/A127T/R128A/G131K/G132T/M134L/R135S/C150S/N157G/S159E limits assumed): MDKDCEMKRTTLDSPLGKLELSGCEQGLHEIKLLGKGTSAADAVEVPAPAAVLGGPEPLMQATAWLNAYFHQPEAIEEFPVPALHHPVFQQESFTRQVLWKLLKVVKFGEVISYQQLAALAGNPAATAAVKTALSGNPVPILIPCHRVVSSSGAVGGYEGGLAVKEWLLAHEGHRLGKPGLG

N-Tris-{[2-(BG-PEG12-NH)-carbonylethoxy]methyl}-methyl nile red-oxyacetamide [FIG. 91]
structural ability to trigger the formation of a protein trimer: confirmed

N-Tris-{[2-(BG-PEG12-NH)-carbonylethoxy]methyl}-methyl-3-[2-(2-maleimidoethyl)disulfanyl]propanoylamide [FIG. 96]
structural ability to trigger the formation of a protein trimer: confirmed

N-Tris-{[2-(BG-PEG12-NH)-carbonylethoxy]methyl}methyl 7-(diethylamino)coumarin-3-carboxamide [FIG. 89]
structural ability to trigger the formation of a protein trimer: confirmed

N-Tris-{[2-(BG-PEG12-NH)-carbonylethoxy]methyl}-methyl 5-maleimidopentanecarboxamide [FIG. 92]
structural ability to trigger the formation of a protein trimer: confirmed

N-Tris-{[2-(BG-PEG12-NH)-carbonylethoxy]methyl}-methyl ATTO-495-carboxamide [FIG. 90]
structural ability to trigger the formation of a protein trimer: confirmed
